Laboratory results from US9132140B2, “Boronic acid derivatives and therapeutic uses thereof” (Rempex Pharmaceuticals, Inc., priority 2013, dated 2015).

How the values were obtained:
[1] = tested on: KPM1347 (NDM-1 SHV CTX-M-15); assay type: cell-based, Klebsiella pneumoniae
Text: (§1) Several strains simultaneously expressing both class A and class B carbapenemases, which were constructed using conjugation, were also included in the panel.

[2] = tested on: KP1084 (KPC-3, SHV-11, TEM-1); assay type: cell-based, Klebsiella pneumoniae
Text: as §1

KPM1097 (NDM, KPC) = assay type: cell-based, Klebsiella pneumoniae
Text: as §1

[3] = tested on: KP1081 (NDM-1, TEM-1, SHV-11, CMY-6, CTX-M-15); assay type: cell-based, Klebsiella pneumoniae
Text: as §1

KPM1111 (NDM, KPC) = assay type: cell-based, Klebsiella pneumoniae
Text: as §1

KP1065 (VIM-1, SHV-11) = assay type: cell-based, Klebsiella pneumoniae
Text: as §1

KPM1108 (NDM, KPC) = assay type: cell-based, Klebsiella pneumoniae
Text: as §1

KPM1110 (NDM, KPC) = assay type: cell-based, Klebsiella pneumoniae
Text: as §1

[4] = tested on: KPM1346 (NDM-1 TEM SHV CTX-M-15 CMY); assay type: cell-based, Klebsiella pneumoniae
Text: as §1

KPM1109 (NDM, KPC) = assay type: cell-based, Klebsiella pneumoniae
Text: as §1

KPM1107 (NDM, KPC) = assay type: cell-based, Klebsiella pneumoniae
Text: as §1

[5] = tested on: strains of Enterobacteriaceae producing various carbapenemases; experiment: Meropenem/imipenem potentiation MIC, whole panel; assay type: cell-based; settings: strains expressing various carbapenemases, incl. class A and class B simultaneously; compound fixed 4 vg/ml
Text: Several strains simultaneously expressing both class A and class B carbapenemases, which were constructed using conjugation, were also included in the panel. […]

[6] = tested on: EC1064 (NDM-1, CMY-6, CTX-M-15); assay type: cell-based, Escherichia coli
Text: as §1

EC1065 (IMP-1 CMY-2) = assay type: cell-based, Escherichia coli
Text: as §1

EC1061 (NDM-1, CMY-6) = assay type: cell-based, Escherichia coli
Text: as §1

EC1068 (VIM-1) = assay type: cell-based, Escherichia coli
Text: as §1

EA1019 (SHV-5, VIM-1) = assay type: cell-based, Enterobacter aerogenes
Text: as §1

SMILES: Nn1cnnc1S[C@H]1Cc2cccc(C(=O)O)c2OB1O [Compound 14, (R)-3-(4-amino-4H-1,2,4-triazol-3-ylthio)-2-hydroxy-3,4-dihydro-2H-benzo[e][1,2]oxaborinine-8-carboxylic acid]
- Meropenem + 14 MIC [1]: X (key: X: MIC of less than 1 μg/mL; Y: MIC of 1 μg/mL to 10 μg/mL; Z: MIC of greater than 10 μg/mL)
- Imipenem + 14 MIC [2]: Y (key: X: MIC of less than 1 μg/mL; Y: MIC of 1 μg/mL to 10 μg/mL; Z: MIC of greater than 10 μg/mL)
- Meropenem + 14 MIC [2]: Y (key: X: MIC of less than 1 μg/mL; Y: MIC of 1 μg/mL to 10 μg/mL; Z: MIC of greater than 10 μg/mL)
- Imipenem + 14 MIC (KPM1097 (NDM, KPC)): X (key: X: MIC of less than 1 μg/mL; Y: MIC of 1 μg/mL to 10 μg/mL; Z: MIC of greater than 10 μg/mL)
- Meropenem + 14 MIC (KPM1097 (NDM, KPC)): X (key: X: MIC of less than 1 μg/mL; Y: MIC of 1 μg/mL to 10 μg/mL; Z: MIC of greater than 10 μg/mL)
- Imipenem + 14 MIC [3]: X (key: X: MIC of less than 1 μg/mL; Y: MIC of 1 μg/mL to 10 μg/mL; Z: MIC of greater than 10 μg/mL)
- Meropenem + 14 MIC [3]: X (key: X: MIC of less than 1 μg/mL; Y: MIC of 1 μg/mL to 10 μg/mL; Z: MIC of greater than 10 μg/mL)
- Imipenem + 14 MIC (KPM1111 (NDM, KPC)): X (key: X: MIC of less than 1 μg/mL; Y: MIC of 1 μg/mL to 10 μg/mL; Z: MIC of greater than 10 μg/mL)
- Meropenem + 14 MIC (KPM1111 (NDM, KPC)): X (key: X: MIC of less than 1 μg/mL; Y: MIC of 1 μg/mL to 10 μg/mL; Z: MIC of greater than 10 μg/mL)
- Imipenem + 14 MIC (KP1065 (VIM-1, SHV-11)): X (key: X: MIC of less than 1 μg/mL; Y: MIC of 1 μg/mL to 10 μg/mL; Z: MIC of greater than 10 μg/mL)
- Meropenem + 14 MIC (KP1065 (VIM-1, SHV-11)): Z (key: X: MIC of less than 1 μg/mL; Y: MIC of 1 μg/mL to 10 μg/mL; Z: MIC of greater than 10 μg/mL)
- Imipenem + 14 MIC (KPM1108 (NDM, KPC)): Y (key: X: MIC of less than 1 μg/mL; Y: MIC of 1 μg/mL to 10 μg/mL; Z: MIC of greater than 10 μg/mL)
- Meropenem + 14 MIC (KPM1108 (NDM, KPC)): Z (key: X: MIC of less than 1 μg/mL; Y: MIC of 1 μg/mL to 10 μg/mL; Z: MIC of greater than 10 μg/mL)
- Imipenem + 14 MIC (KPM1110 (NDM, KPC)): X (key: X: MIC of less than 1 μg/mL; Y: MIC of 1 μg/mL to 10 μg/mL; Z: MIC of greater than 10 μg/mL)
- Meropenem + 14 MIC (KPM1110 (NDM, KPC)): X (key: X: MIC of less than 1 μg/mL; Y: MIC of 1 μg/mL to 10 μg/mL; Z: MIC of greater than 10 μg/mL)
- Imipenem + 14 MIC [4]: Y (key: X: MIC of less than 1 μg/mL; Y: MIC of 1 μg/mL to 10 μg/mL; Z: MIC of greater than 10 μg/mL)
- Meropenem + 14 MIC [4]: Z (key: X: MIC of less than 1 μg/mL; Y: MIC of 1 μg/mL to 10 μg/mL; Z: MIC of greater than 10 μg/mL)
- Imipenem + 14 MIC (KPM1109 (NDM, KPC)): X (key: X: MIC of less than 1 μg/mL; Y: MIC of 1 μg/mL to 10 μg/mL; Z: MIC of greater than 10 μg/mL)
- Meropenem + 14 MIC (KPM1109 (NDM, KPC)): Y (key: X: MIC of less than 1 μg/mL; Y: MIC of 1 μg/mL to 10 μg/mL; Z: MIC of greater than 10 μg/mL)
- Imipenem + 14 MIC (KPM1107 (NDM, KPC)): X (key: X: MIC of less than 1 μg/mL; Y: MIC of 1 μg/mL to 10 μg/mL; Z: MIC of greater than 10 μg/mL)
- Meropenem + 14 MIC (KPM1107 (NDM, KPC)): X (key: X: MIC of less than 1 μg/mL; Y: MIC of 1 μg/mL to 10 μg/mL; Z: MIC of greater than 10 μg/mL)
- carbapenem MIC in the presence of compound [5]: significantly reduced
- Imipenem + 14 MIC [6]: X (key: X: MIC of less than 1 μg/mL; Y: MIC of 1 μg/mL to 10 μg/mL; Z: MIC of greater than 10 μg/mL)
- Meropenem + 14 MIC [6]: Y (key: X: MIC of less than 1 μg/mL; Y: MIC of 1 μg/mL to 10 μg/mL; Z: MIC of greater than 10 μg/mL)
- Imipenem + 14 MIC (EC1065 (IMP-1 CMY-2)): X (key: X: MIC of less than 1 μg/mL; Y: MIC of 1 μg/mL to 10 μg/mL; Z: MIC of greater than 10 μg/mL)
- Meropenem + 14 MIC (EC1065 (IMP-1 CMY-2)): X (key: X: MIC of less than 1 μg/mL; Y: MIC of 1 μg/mL to 10 μg/mL; Z: MIC of greater than 10 μg/mL)
- Imipenem + 14 MIC (EC1061 (NDM-1, CMY-6)): X (key: X: MIC of less than 1 μg/mL; Y: MIC of 1 μg/mL to 10 μg/mL; Z: MIC of greater than 10 μg/mL)
- Meropenem + 14 MIC (EC1061 (NDM-1, CMY-6)): X (key: X: MIC of less than 1 μg/mL; Y: MIC of 1 μg/mL to 10 μg/mL; Z: MIC of greater than 10 μg/mL)
- Imipenem + 14 MIC (EC1068 (VIM-1)): X (key: X: MIC of less than 1 μg/mL; Y: MIC of 1 μg/mL to 10 μg/mL; Z: MIC of greater than 10 μg/mL)
- Meropenem + 14 MIC (EC1068 (VIM-1)): X (key: X: MIC of less than 1 μg/mL; Y: MIC of 1 μg/mL to 10 μg/mL; Z: MIC of greater than 10 μg/mL)
- Imipenem + 14 MIC (EA1019 (SHV-5, VIM-1)): Y (key: X: MIC of less than 1 μg/mL; Y: MIC of 1 μg/mL to 10 μg/mL; Z: MIC of greater than 10 μg/mL)
- Meropenem + 14 MIC (EA1019 (SHV-5, VIM-1)): X (key: X: MIC of less than 1 μg/mL; Y: MIC of 1 μg/mL to 10 μg/mL; Z: MIC of greater than 10 μg/mL)
